According to US9751874B2, “Hydroxy containing FXR (NR1H4) modulating compounds” (Gilead Sciences, Inc., priority 2014, dated 2017):

Experiments:
[1] = target: T1, human FXR alpha ligand binding domain (Homo sapiens, UniProt Q96RI1); experiment: FRET activity assay (ligand mediated cofactor peptide interaction, LANCE); type: biochemical; conditions: GST-FXR-LBD / biotinylated SRC-1 peptide (676-700), read-out: F EC50
T1 construct: made in house; host or cells: E. coli BL21(DE3), vector pDEST15
T1 sequence (Q96RI1 187-472 isoform Q96RI1-2): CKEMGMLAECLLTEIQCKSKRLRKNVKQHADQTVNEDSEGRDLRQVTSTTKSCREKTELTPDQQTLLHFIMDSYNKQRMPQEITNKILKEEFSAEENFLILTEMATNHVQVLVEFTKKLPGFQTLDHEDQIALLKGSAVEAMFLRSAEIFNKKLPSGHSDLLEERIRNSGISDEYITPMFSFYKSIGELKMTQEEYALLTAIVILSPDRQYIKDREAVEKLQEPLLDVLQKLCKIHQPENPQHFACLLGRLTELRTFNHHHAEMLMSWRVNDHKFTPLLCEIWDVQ
Protocol: Determination of a ligand mediated cofactor peptide interaction to quantify ligand binding to the nuclear receptor FXR was performed as follows: Preparation of human FXR alpha ligand binding domain: The human FXRalpha LBD was expressed in E. coli strain BL21(DE3) as an N-terminally GST tagged fusion protein. The DNA encoding the FXR ligand binding domain was cloned into vector pDEST15 (Invitrogen). Expression was under control of an IPTG inducible T7 promoter. The amino acid boundaries of the ligand binding domain were amino acids 187-472 of Database entry NM_005123 (RefSeq). Expression and purification of the FXR-LBD: An overnight preculture of a transformed E. coli strain was diluted 1:20 in LB-Ampicillin medium and grown at 30° C. to an optical density of OD600=0.4-0.6. Gene expression was then induced by addition of 0.5 mM IPTG. Cells were incubated an additional 6 h at 30° C., 180 rpm. Cells were collected by centrifugation (7000×g, 7 min, rt). Per liter of original cell culture, cells were resuspended in 10 mL lysis buffer (50 mM Glucose, 50 mM Tris pH 7.9, 1 mM EDTA and 4 mg/mL lysozyme) and left on ice for 30 min. Cells were then subjected to sonication and cell debris removed via centrifugation (22000×g, 30 min, 4° C.). Per 10 mL of supernatant 0.5 mL prewashed Glutathione 4B sepharose slurry (Qiagen) was added and the suspension kept slowly rotating for 1 h at 4° C. Glutathione 4B sepharose beads were pelleted by centrifugation (2000×g, 15 sec, 4° C.) and washed twice in wash buffer (25 mM Tris, 50 mM KCl, 4 mM MgCl2 and 1M NaCl). The pellet was resuspended in 3 mL elution buffer per liter of original culture (elution buffer: 20 mM Tris, 60 mM KCl, 5 mM MgCl2 and 80 mM glutathione added immediately prior to use as powder). The suspension was left rotating for 15 min at 4° C., the beads pelleted and eluted again with half the volume of elution buffer than the first time. The eluates were pooled and dialysed overnight in 20 mM Hepes buffer (pH 7.5) containing 60 mM KCl, 5 mM MgCl2 as well as 1 mM dithiothreitol and 10% (v/v) glycerol. The protein was analysed by SDS-Page.
The method measures the ability of putative ligands to modulate the interaction between the purified bacterial expressed FXR ligand binding domain (LBD) and a synthetic biotinylated peptide based on residues 676-700 of SRC-1 (LCD2, 676-700). The sequence of the peptide used was B—[…]—COOH where the N-terminus was biotinylated (B). The ligand binding domain (LBD) of FXR was expressed as fusion protein with GST in BL-21 cells using the vector pDEST15. Cells were lysed by sonication, and the fusion proteins purified over glutathione sepharose (Pharmacia) according to the manufacturers instructions. For screening of compounds for their influence on the FXR-peptide interaction, the Perkin Elmer LANCE technology was applied. This method relies on the binding dependent energy transfer from a donor to an acceptor fluorophor attached to the binding partner of interest. For ease of handling and reduction of background from compound fluorescence LANCE technology makes use of generic fluorophore labels and time resolved detection Assays were done in a final volume of 25 μL in a 384 well plate, in a Tris-based buffer (20 mM Tris-HCl pH 7.5; 60 mM KCl, 5 mM MgCl2; 35 ng/μL BSA), containing 20-60 ng/well recombinantly expressed FXR-LBD fused to GST, 200-600 nM N-terminally biotinylated peptide, representing SRC1 aminoacids 676-700, 200 ng/well Streptavidin-xIAPC conjugate (Prozyme) and 6-10 ng/well Eu W1024-antiGST (Perkin Elmer). DMSO content of the samples was kept at 1%. After generation of the assay mix and diluting the potentially FXR modulating ligands, the assay was equilibrated for 1 h in the dark at rt in FIA-plates black 384 well (Greiner). The LANCE signal was detected by a Perkin Elmer VICTOR2VTM Multilabel Counter. The results were visualized by plotting the ratio between the emitted light at 665 and 615 nm. […]

[2] = target: T2, FXR ligand binding domain (Homo sapiens, UniProt Q96RI1); experiment: Mammalian One Hybrid (M1H) assay, Gal4 promoter driven transactivation in HEK293 cells; type: cell-based; conditions: Gal4-FXR-LBD luciferase reporter, 16 h
T2 construct: expressed in transfected cells; host or cells: HEK293 cells, transiently transfected with pCMV-BD-FXR-LBD, pFR-Luc and pRL-CMV
T2 sequence (Q96RI1 187-472 isoform Q96RI1-2): T1 sequence (Q96RI1 187-472 isoform Q96RI1-2)
Protocol: Mammalian One Hybrid (M1H) Assay
Determination of a ligand mediated Gal4 promoter driven transactivation to quantify ligand binding mediated activation of FXR was performed as follows: The cDNA part encoding the FXR ligand binding domain was cloned into vector pCMV-BD (Stratagene) as a fusion to the yeast GAL4 DNA binding domain under the control of the CMV promoter. The amino acid boundaries of the ligand binding domain were amino acids 187-472 of Database entry NM_005123 (RefSeq). The plasmid pFR-Luc (Stratagene) was used as the reporter plasmid, containing a synthetic promoter with five tandem repeats of the yeast GAL4 binding sites, driving the expression of the Photinus pyralis (American firefly) luciferase gene as the reporter gene. In order to improve experimental accuracy the plasmid pRL-CMV (Promega) was cotransfected. pRL-CMV contains the constitutive CMV promoter, controlling the expression of the Renilla reniformis luciferase. All Gal4 reporter gene assays were done in HEK293 cells (obtained from DSMZ, Braunschweig, Germany) grown in MEM with L-Glutamine and Earle's BSS supplemented with 10% fetal bovine serum, 0.1 mM nonessential amino acids, 1 mM sodium pyruvate, and 100 units Penicilin/[…] per mL at 37° C. in 5% CO2. Medium and supplements were obtained from Invitrogen. For the assay, […] cells were plated per well in 96 well plates in 100 μL per well MEM without Phenol Red and L-Glutamine and with Earle's BSS supplemented with 10% charcoal/dextran treated FBS (HyClone, South Logan, Utah), 0.1 mM nonessential amino acids, 2 mM glutamine, 1 mM sodium pyruvate, and 100 units Penicilin/[…] per mL, incubated at 37° C. in 5% CO2. The following day the cells were >90% confluence. Medium was removed and cells were transiently transfected using 20 μL per well of a OptiMEM—polyethylene-imine-based transfection-reagent (OptiMEM, Invitrogen; Polyethyleneimine, Aldrich Cat No. 40,827-7) including the three plasmids described above. MEM with the same composition as used for plating cells was added 2-4 h after addition of transfection mixture. Then compound stocks, prediluted in MEM were added (final vehicle concentration not exceeding 0.1%). Cells were incubated for additional 16 h before firefly and renilla luciferase activities were measured sequentially in the same cell extract using a Dual-Light-Luciferase-Assay system (Dyer et al., Anal. Biochem. 2000, 282, 158-161). All experiments were done in triplicates.

Row | Structure (SMILES) | EC50 [1] | EC50 [2]
1 | O=C(O)c1ccc2nc([C@]3(O)CC[C@@H](OCc4c(-c5ccccc5OC(F)F)noc4C4CC4)CC3)sc2c1 [Example 11-10, 2-((1s,4s)-4-((5-Cyclopropyl-3-(2-(difluoromethoxy)phenyl)isoxazol-4-yl)methoxy)-1-hydroxycyclohexyl)benzo[d]thiazole-6-carboxylic acid] | 250 nM | 1200 nM
2 | O=C(O)c1cc(F)c2nc([C@]3(O)C[C@@H](OCc4c(-c5c(Cl)cccc5Cl)noc4C4CC4)C3)sc2c1 [Example 11-21, 2-((1s,3s)-3-((5-Cyclopropyl-3-(2,6-dichlorophenyl)isoxazol-4-yl)methoxy)-1-hydroxycyclobutyl)-4-fluorobenzo[d]thiazole-6-carboxylic acid] | 23 nM | 310 nM
3 | O=C(O)c1ccc([C@]2(O)[C@@H]3CC[C@H]2C[C@H](OCc2c(-c4c(Cl)cccc4Cl)noc2C2CC2)C3)c(F)c1 [Example 11-24] | 7.8 nM | 14 nM
4 | O=C(O)c1ccc2nc([C@]3(O)CC[C@@H](OCc4c(-c5ccccc5C5CC5)noc4C4CC4)CC3)sc2c1 [Example 11-11, 2-((1s,4s)-4-((5-Cyclopropyl-3-(2-cyclopropylphenyl)isoxazol-4-yl)methoxy)-1-hydroxycyclohexyl)benzo[d]thiazole-6-carboxylic acid] | 1000 nM | 1400 nM
5 | O=C(O)c1cc2sc([C@]3(O)CC[C@@H](OCc4c(-c5c(Cl)cccc5Cl)noc4C4CC4)CC3)nc2cc1F [Example 11-20, 2-((1s,4s)-4-((5-Cyclopropyl-3-(2,6-dichlorophenyl)isoxazol-4-yl)methoxy)-1-hydroxycyclohexyl)-5-fluorobenzo[d]thiazole-6-carboxylic acid] | 180 nM | 1500 nM
6 | O=C(O)c1ccc2nc([C@]3(O)[C@@H]4CC[C@H]3C[C@@H](OCc3c(-c5c(Cl)cccc5Cl)noc3C3CC3)C4)sc2c1 [Example 11-23, 2-((1R,3r,5S,8r)-3-((5-Cyclopropyl-3-(2,6-dichlorophenyl)isoxazol-4-yl)methoxy)-8-hydroxybicyclo[3.2.1]octan-8-yl)benzo[d]thiazole-6-carboxylic acid] | 41 nM | 18 nM
7 | O=C(O)c1ccc2nc([C@]3(O)CC[C@@H](OCc4c(-c5c(Cl)cncc5Cl)noc4C4CC4)CC3)sc2c1 [Example 11-16, 2-((1s,4s)-4-((5-Cyclopropyl-3-(3,5-dichloropyridin-4-yl)isoxazol-4-yl)methoxy)-1-hydroxycyclohexyl)benzo[d]thiazole-6-carboxylic acid] | 84 nM | 570 nM
8 | O=C(O)c1cc(F)c2nc([C@]3(O)[C@@H]4CC[C@H]3C[C@H](OCc3c(-c5c(Cl)cncc5Cl)noc3C3CC3)C4)sc2c1 [Example 11-29, 2-((1R,3s,5S,8r)-3-((5-cyclopropyl-3-(3,5-dichloropyridin-4-yl)isoxazol-4-yl)methoxy)-8-hydroxybicyclo[3.2.1]octan-8-yl)-4-fluorobenzo[d]thiazole-6-carboxylic acid] | 4.3 nM | 5.8 nM

Now from value to compound:

Row | EC50 [1] | EC50 [2] | Structure (SMILES)
9 | 50 nM | 130 nM | O=C(O)c1cc(F)c2nc([C@]3(O)CC[C@@H](OCc4c(-c5c(Cl)cccc5Cl)noc4C4CC4)CC3)sc2c1 [Example 11-31, 2-((1s,4s)-4-((5-cyclopropyl-3-(2,6-dichlorophenyl)isoxazol-4-yl)methoxy)-1-hydroxycyclohexyl)-4-fluorobenzo[d]thiazole-6-carboxylic acid]
10 | 49 nM | 140 nM | OC1(c2nc3ccccc3s2)C2CC3CC1CC(OCc1c(-c4c(Cl)cccc4Cl)noc1C1CC1)(C3)C2 [Example 24a, (1R,2r,3S,5s,7s)-2-(Benzo[d]thiazol-2-yl)-5-((5-cyclopropyl-3-(2,6-dichlorophenyl)isoxazol-4-yl)methoxy)adamantan-2-ol]
11 | 810 nM | 390 nM | O=C(O)c1cc(F)c2nc(C3(O)C[C@H]4CC[C@@H](C3)C4OCc3c(-c4c(Cl)cccc4Cl)noc3C3CC3)sc2c1 (single isomer, unassigned) [Example 11-54]
12 | 77 nM | 24 nM | O=C(O)c1cc(F)c2nc(C3(O)C[C@H]4CC[C@@H](C3)C4OCc3c(-c4c(Cl)cccc4Cl)noc3C3CC3)sc2c1 (single isomer, unassigned) [Example 11-55]
13 | 150 nM | 670 nM | O=C(NCCN1CCOCC1)c1cc(F)c2nc([C@]3(O)CC[C@@H](OCc4c(-c5c(Cl)cncc5Cl)noc4C4CC4)CC3)sc2c1 [Example 17, 2-((1s,4s)-4-((5-Cyclopropyl-3-(3,5-dichloropyridin-4-yl)isoxazol-4-yl)methoxy)-1-hydroxycyclohexyl)-4-fluoro-N-(2-morpholinoethyl)benzo[d]thiazole-6-carboxamide]
14 | 37 nM | 77 nM | O[C@@]1(c2nc3ccc(Br)cc3s2)[C@@H]2CC[C@H]1C[C@H](OCc1c(-c3c(Cl)cccc3Cl)noc1C1CC1)C2 [Example 15-1, (1R,3s,5S,8r)-8-(6-Bromobenzo[d]thiazol-2-yl)-3-((5-cyclopropyl-3-(2,6-dichlorophenyl)isoxazol-4-yl)methoxy)bicyclo[3.2.1]octan-8-ol]
